Laboratory results published in patent US20130237610A1, “DYNAMIC BALANCING OF AUTONOMIC NERVOUS SYSTEM THROUGH VITAMIN MK-7” (priority 2010, published 2013).

Columns and labels:
[1] = tested on: healthy male volunteers; test: ANS activity (sympathovagal balance) measured by ANSiscope in healthy male volunteers; type: in vivo, human; details: for general and systemic examination, Blood Pressure (Supine), pulse: 350 μg per day, 2 months; for percentage of ANS dysfunction / stage of ANS dysfunction: 1 cap per day of 350 μg, end of 2 months
Protocol: […] ANS activity was measured and printed out in a graph form by the ANSiscope™, manufactured by DyAnsys a US based company. The instrument is US FDA approved patented instrument. This instrument assessed the autonomic function by calculating 500 Heart beats/RR intervals. After assessing this, the instrument will analyze the level of the dysfunction and the degree of autonomic neuropathy. For this reason they have classified autonomic dysfunction in 5 stages, namely Healthy (H), Early (E), Late (L), Advanced (A) and Most Advanced (MA). The percentage calculation values demarcating groups are: −11.5% to 11.5%: healthy group, 13.5% to 20%: early group, 23% to 50.99%: late group, 51% to 100%: advanced group and above falls in Most advance group.
The study parameters assessed were sympathetic and parasympathetic tone, change in blood pressure (orthostatic intolerance, measured at right. brachial artery), pulse (assessed by measuring the pulse at right. radial artery) and physical and general examination. Study was performed on subjects in relaxed supine position without any external stimulation, usually 2 hrs. after breakfast during morning time for 2 consecutive months.
Subjects who have Blood pressure beyond the range of 140/90 (supine) and 100/70 (standing) mm Hg, and Sugar Fasting more than 250 mg % and with any major illness are ruled out of study. All subjects were checked for baseline parameters on 0 day. Vitamin K2-7 (MK-7) in dose of 350 μg was administered on 3rd day after the baseline reading. MK-7 was continued for 2 months. Readings were taken on 3rd day, 15th day, 28st day, 50th day, 56th day and at 62nd day.

[2] = tested on: rats; test: Chronic toxicity study, ECG of rats; type: in vivo; details: rat ECG
Excerpt: In another study on animal model during chronic toxicity study, it was discovered that MK-7 produces significant changes in ECG of rats. This discovery during basic pharmacology studies on MK-7 was investigated for its effect on Cardio Vascular System. It is during this study the investigator discovered the following findings (FIGS. 5 and 6).
The main parameter which was observed during chronic toxicity studies in rat ECG was the prolongation of QT interval.

[3] = tested on: ISO injected rats; test: Isoproterenol (ISO) induced cardiac injury model; type: in vivo, rat
Protocol: During the yet another study conducted to assess the cardioprotective effect of vitamin K2-7, inventors of the current invention observe that the vitamin K2-7 improves the cardiac output parameters. Isoproterenol (ISO) induced cardiac injury model was selected for the study. It was observed that ISO induced cardiac output decrease in all the dose levels i.e. at 90 μg/kg, 450 μg/kg and 900 μg/kg. […] This effects was non-linear and was enhanced in 900 μg/kg dose.
Effect of vitamin K2-7 on the left cardiac work has been evaluated in the same study. It was observed that administration of ISO leads to marked decrease in left cardiac work when measured 48 h after ISO injection in comparison to pre ISO level i.e. control.
In the same study it was also observed that vitamin K2-7 enhances the High Density Lipoprotein (HDL) level in all the dose levels studied i.e. at 90 μg/kg, 450 μg/kg and 900 μg/kg. Isoproterenol (ISO) induced cardiac injury model was selected for the study. […] HDL cholesterol level for the treated group increased in comparison to the ISO controlled group. The observed increase was greater with respect to the dose level increased.

Structure (SMILES): CC(C)=CCC/C(C)=C/CC/C(C)=C/CC/C(C)=C/CC/C(C)=C/CC/C(C)=C/CC/C(C)=C/CC1=C(C)C(=O)c2ccccc2C1=O [MK-7]
- other parameters (blood pressure, pulse, physical and general examination) ([1]; 350 μg for 2 months): remained unaffected
- general and systemic examination, Blood Pressure (Supine), pulse ([1]; person one): in normal range without any change from base line records
- general and systemic examination, Blood Pressure (Supine), pulse ([1]; person two): in normal range without any change from base line records
- parasympathetic activity ([1]; 350 μg, after 2 months of therapy): little effect
- sympathetic activity ([1]; 350 μg, after 2 months of therapy, initially elevated): marked normalization
- percentage of ANS dysfunction ([1]; person one, baseline 61%): 31%
- stage of ANS dysfunction ([1]; person one, baseline 'Advance stage'): Early (13.5% to 20%: early group)
- percentage of ANS dysfunction ([1]; person two, baseline 25%): 21%
- stage of ANS dysfunction ([1]; person two, baseline 'Late stage'): Early (13.5% to 20%: early group)
- PR interval [2]: not affected to significant extent
- QTc change [2]: moderate non-significant shortening
- heart rate [2]: no increase
- prolongation of QTc [2]: did not cause any prolongation
- QT interval ([2]; 100, 500, 1000 μg/kg): remained unaffected
- QRS interval ([2]; 500, 1000 μg/kg): significant shortening
- RR interval ([2]; 500, 1000 μg/kg): significant prolongation
- ISO induced cardiac output decrease ([3]; 90 μg/kg and 450 μg/kg): reversed
- ISO induced cardiac output decrease ([3]; 900 μg/kg): enhanced
- ISO induced left cardiac work decrease, reversal ([3]; 900 μg/kg vs other treatment groups): higher than other treatment groups
- ISO induced left cardiac work decrease ([3]; 90, 450 and 900 μg/kg, 48 h after ISO injection, vs ISO control): reversed to a great extent
- HDL cholesterol level ([3]; 90, 450 and 900 μg/kg, vs ISO control group): increased
- blood sugar ([3]; within 12 days, 90, 450 and 900 μg/kg): reducing blood sugar
